Assay results from PMC5641551, “Chemical Proteomics for Target Discovery of Head-to-Tail Cyclized Mini-Proteins” (Frontiers in Chemistry, 2017).
No end group written: not given here.

How the values were obtained:
GST-tagged 14-3-3β = test: co-precipitation of GST-tagged 14-3-3β with cyclotide probe and competitors; format: binding
Method: Splenocytes or Jurkat cells were lysed with 25 mM Tris-HCl pH 7.4, 40 mM KCl, 2.5 mM MgSO4 2.5 mM CaCl2, 2% (v/v) glycerol, 1 mM EDTA under repeated freeze-thaw cycles and 10 min sonification. All experiments were performed in buffer with 1x complete protease inhibitor cocktail (Hoffman-La Roche, Basel, Switzerland). Cell membranes and debris were pelleted for 30 min at 16,000 × g and the supernatant corresponds to the “soluble cell lysate.” Protein concentration was determined using a bicinchoninic acid assay kit (Thermo Scientific) and DTT (1 mM) was added to keep redox potential constant during binding experiments. Photo-affinity pull down samples were submitted to denaturing sodium dodecyl sulfate polyacrylamide gel electrophoresis (PAGE). For immunoblotting according to earlier published protocols (Gruber et al., [2007]; Bergmayr et al., [2013]) proteins were semi-dry transferred onto a nitrocellulose membrane 0.45 μM (Amersham Protran, GE Healthcare, Austria) using a Fast Semi-dry blotter (Bio-Rad) at 0.25 mA per gel for 1 h. Primary rabbit anti-GFP antibody (1:5,000) was from Invitrogen (A6455), rabbit anti-GST antibody (1:2,500) from Abcam (ab9085), and mouse anti-human calcineurin subunit A antibody (1:2,000) clone BE2.1 from eBioscience. Secondary ECL anti-mouse (NA931V) or ECL anti-rabbit (NA934VS) IgG antibodies (1:10,000) were conjugated with horse radish peroxidase (GE Healthcare). Chemo-luminescence signals were detected on an imaging system FluorChem HD2 (Alpha Innotech, CA, United States). For silver staining protein gels were treated immediately after electrophoresis with fixing solution EtOH/ddH2O/acetic acid 50/40/10% (v/v/v) for 20 min. Gels had to be washed acid free, first with 50% (v/v) EtOH for 10 min and with ddH2O for 2 h. Gels were exposed to sensitization buffer 0.025% Na2S2O3 in ddH2O for 3 min, followed by 2 min wash with ddH2O. Gels were silver loaded using a 0.15% AgNO3 solution for 45 min in the dark. The protein bands were stained in development buffer formaldehyde/Na2CO3 0.04/2% (v/w) under rigorous shaking. The reaction was quenched with 5% (v/v) acetic acid solution and the gels were stored until further processing in the stopping buffer at 4°C. Pixel quantification was carried out using ImageJ v1.47 (National Institute for Health).
Biotin-LC-LC-labeled (ThermoFisher) peptides (1–5 nmoles) with or without ([…]) were incubated with Jurkat cell or murine splenocyte cell lysates (150–500 μg proteins) for 2 h at 4°C in the presence of protease inhibitors. UV-activation of photo-crosslinking moiety benzophenone was induced by irradiation at 360 nm on ice for 15 min (Stratalinker, Stratagene, CA, United States). […]

[1] = tested on: 14-3-3 proteins / 25 kDa protein in Jurkat cell lysates; test: photo-affinity pull down, Jurkat cell lysate, with competition; format: binding, human; conditions: competitor at 20-, 60- and 100-fold molar excess of biotinylated probe [T20K,W23Bpa]kB1, silver-stained gel
Method: Splenocytes or Jurkat cells were lysed with 25 mM Tris-HCl pH 7.4, 40 mM KCl, 2.5 mM MgSO4 2.5 mM CaCl2, 2% (v/v) glycerol, 1 mM EDTA under repeated freeze-thaw cycles and 10 min sonification. All experiments were performed in buffer with 1x complete protease inhibitor cocktail (Hoffman-La Roche, Basel, Switzerland). Cell membranes and debris were pelleted for 30 min at 16,000 × g and the supernatant corresponds to the “soluble cell lysate.” Protein concentration was determined using a bicinchoninic acid assay kit (Thermo Scientific) and DTT (1 mM) was added to keep redox potential constant during binding experiments. Photo-affinity pull down samples were submitted to denaturing sodium dodecyl sulfate polyacrylamide gel electrophoresis (PAGE). For immunoblotting according to earlier published protocols (Gruber et al., [2007]; Bergmayr et al., [2013]) proteins were semi-dry transferred onto a nitrocellulose membrane 0.45 μM (Amersham Protran, GE Healthcare, Austria) using a Fast Semi-dry blotter (Bio-Rad) at 0.25 mA per gel for 1 h. […] Chemo-luminescence signals were detected on an imaging system FluorChem HD2 (Alpha Innotech, CA, United States). […] Pixel quantification was carried out using ImageJ v1.47 (National Institute for Health). […]

CGETCVGGTCNTPGCKCSWPVCTRNGLPV (also: bicyclic or more (positions not given here)) [[T20K]kB1, synthetic cyclotide drug candidate, Thr20 to Lys mutant of kalata B1]
binding to 14-3-3 family proteins (GST-tagged 14-3-3β; conclusion in words from competition co-precipitation): can bind to 14-3-3 family proteins
binding of probe [T20K,W23Bpa]kB1 to 14-3-3β in presence of competitor (GST-tagged 14-3-3β; immunoblot and far Western blot, 2 h at 4°C, competitors 150–500-fold molar excess): significantly altered
effect of competitor on 25 kDa protein band intensity [1]: revealed an effect on the band intensity of a 25 kDa protein
